Values of other authors as cited in patent publication US6080760A, “Alpha 1A adrenergic receptor antagonists” (Merck & Co., Inc., priority 1998, dated 2000).

What was measured:
[1] = test system: adrenergic receptors of the alpha1 subtype; settings: reported in WO 92/0073
prostatic hyperplasia = settings: reported in EP 0 204597

| SMILES | selective binding to adrenergic receptors of the alpha1 subtype [1] | urination in cases of prostatic hyperplasia (prostatic hyperplasia) |
| --- | --- | --- |
| COc1cc2nc(N3CCN(C(=O)[C@H]4CCCO4)CC3)nc(N)c2cc1OC [R(+) enantiomer of terazosin] | selective ability | – |
| COc1cc2nc(N(C)CCCNC(=O)C3CCCO3)nc(N)c2cc1OC (centres unmarked) [alfuzosin] | – | induce urination |
